{"source": "PubChem BioAssay (NCI)", "assay_in_all_cases": "NCI tumour cell line growth inhibition, 48 h", "key": {"M14 melanoma": {"test_system": "M14 melanoma"}, "MALME-3M melanoma": {"test_system": "MALME-3M melanoma"}, "RPMI-8226 leukemia": {"test_system": "RPMI-8226 leukemia"}, "K-562 leukemia": {"test_system": "K-562 leukemia"}, "HCT-15 colon": {"test_system": "HCT-15 colon"}, "SNB-75 CNS": {"test_system": "SNB-75 CNS"}, "UACC-257 melanoma": {"test_system": "UACC-257 melanoma"}, "HS 578T breast": {"test_system": "HS 578T breast"}, "PC-3 prostate": {"test_system": "PC-3 prostate"}, "KM12 colon": {"test_system": "KM12 colon"}, "ACHN renal": {"test_system": "ACHN renal"}, "U251 CNS": {"test_system": "U251 CNS"}, "SK-OV-3 ovarian": {"test_system": "SK-OV-3 ovarian"}, "DU-145 prostate": {"test_system": "DU-145 prostate"}, "BT-549 breast": {"test_system": "BT-549 breast"}, "SF-295 CNS": {"test_system": "SF-295 CNS"}, "MDA-MB-231 breast": {"test_system": "MDA-MB-231 breast"}, "OVCAR-8 ovarian": {"test_system": "OVCAR-8 ovarian"}, "CAKI-1 renal": {"test_system": "CAKI-1 renal"}, "MCF7 breast": {"test_system": "MCF7 breast"}, "SK-MEL-5 melanoma": {"test_system": "SK-MEL-5 melanoma"}, "A498 renal": {"test_system": "A498 renal"}, "SF-539 CNS": {"test_system": "SF-539 CNS"}, "HCC-2998 colon": {"test_system": "HCC-2998 colon"}, "RXF 393 renal": {"test_system": "RXF 393 renal"}, "CCRF-CEM leukemia": {"test_system": "CCRF-CEM leukemia"}, "OVCAR-4 ovarian": {"test_system": "OVCAR-4 ovarian"}, "HL-60(TB) leukemia": {"test_system": "HL-60(TB) leukemia"}, "UO-31 renal": {"test_system": "UO-31 renal"}, "UACC-62 melanoma": {"test_system": "UACC-62 melanoma"}, "SK-MEL-28 melanoma": {"test_system": "SK-MEL-28 melanoma"}, "IGROV1 ovarian": {"test_system": "IGROV1 ovarian"}, "TK-10 renal": {"test_system": "TK-10 renal"}, "MOLT-4 leukemia": {"test_system": "MOLT-4 leukemia"}, "NCI-H460 lung": {"test_system": "NCI-H460 lung"}, "SF-268 CNS": {"test_system": "SF-268 CNS"}, "NCI-H23 lung": {"test_system": "NCI-H23 lung"}, "SW-620 colon": {"test_system": "SW-620 colon"}, "OVCAR-5 ovarian": {"test_system": "OVCAR-5 ovarian"}, "MDA-N": {"test_system": "MDA-N"}, "EKVX NSCLC": {"test_system": "EKVX NSCLC"}, "NCI/ADR-RES ovarian": {"test_system": "NCI/ADR-RES ovarian"}, "SK-MEL-2 melanoma": {"test_system": "SK-MEL-2 melanoma"}, "COLO 205 colon": {"test_system": "COLO 205 colon"}, "OVCAR-3 ovarian": {"test_system": "OVCAR-3 ovarian"}, "MDA-MB-435": {"test_system": "MDA-MB-435"}, "HT29 colon": {"test_system": "HT29 colon"}, "SR leukemia": {"test_system": "SR leukemia"}, "T-47D breast": {"test_system": "T-47D breast"}, "786-0 renal": {"test_system": "786-0 renal"}, "HCT-116 colon": {"test_system": "HCT-116 colon"}, "A549 NSCLC": {"test_system": "A549 NSCLC"}, "NCI-H226 lung": {"test_system": "NCI-H226 lung"}, "NCI-H522 lung": {"test_system": "NCI-H522 lung"}, "SN12C renal": {"test_system": "SN12C renal"}, "SNB-19 CNS": {"test_system": "SNB-19 CNS"}, "LOX IMVI melanoma": {"test_system": "LOX IMVI melanoma"}, "HOP-62 NSCLC": {"test_system": "HOP-62 NSCLC"}, "HOP-92 NSCLC": {"test_system": "HOP-92 NSCLC"}}, "note": "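Five concentrations, 48 hours, 96-well plates. TGI: total growth inhibition.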", "data": [{"smiles": "COc1ccc(C(=O)/C=C/c2cc(O)c(O)cc2F)c(OC)c1", "values": [{"measurement": "TGI", "setting": "M14 melanoma", "value": 23.9, "unit": "µM"}, {"measurement": "TGI", "setting": "MALME-3M melanoma", "value": 24.6, "unit": "µM"}, {"measurement": "TGI", "setting": "RPMI-8226 leukemia", "value": 36.4, "unit": "µM"}, {"measurement": "TGI", "setting": "K-562 leukemia", "value": "> 43.1", "unit": "µM"}, {"measurement": "TGI", "setting": "HCT-15 colon", "value": "> 40.9", "unit": "µM"}, {"measurement": "TGI", "setting": "SNB-75 CNS", "value": 20.7, "unit": "µM"}, {"measurement": "TGI", "setting": "UACC-257 melanoma", "value": 22.7, "unit": "µM"}, {"measurement": "TGI", "setting": "HS 578T breast", "value": "> 65.3", "unit": "µM"}, {"measurement": "TGI", "setting": "PC-3 prostate", "value": 25.4, "unit": "µM"}, {"measurement": "TGI", "setting": "KM12 colon", "value": "> 79.9", "unit": "µM"}, {"measurement": "TGI", "setting": "ACHN renal", "value": "> 63.3", "unit": "µM"}, {"measurement": "TGI", "setting": "U251 CNS", "value": 20.9, "unit": "µM"}, {"measurement": "TGI", "setting": "SK-OV-3 ovarian", "value": 47.2, "unit": "µM"}, {"measurement": "TGI", "setting": "DU-145 prostate", "value": 27.3, "unit": "µM"}, {"measurement": "TGI", "setting": "BT-549 breast", "value": 24.4, "unit": "µM"}, {"measurement": "TGI", "setting": "SF-295 CNS", "value": 23.5, "unit": "µM"}, {"measurement": "TGI", "setting": "MDA-MB-231 breast", "value": 64.3, "unit": "µM"}, {"measurement": "TGI", "setting": "OVCAR-8 ovarian", "value": "> 76.6", "unit": "µM"}, {"measurement": "TGI", "setting": "CAKI-1 renal", "value": "> 100", "unit": "µM"}, {"measurement": "TGI", "setting": "MCF7 breast", "value": 13.9, "unit": "µM"}, {"measurement": "TGI", "setting": "SK-MEL-5 melanoma", "value": 20.9, "unit": "µM"}, {"measurement": "TGI", "setting": "A498 renal", "value": 26.8, "unit": "µM"}, {"measurement": "TGI", "setting": "SF-539 CNS", "value": 31, "unit": "µM"}, {"measurement": "TGI", "setting": "HCC-2998 colon", "value": 7.42, "unit": "µM"}, {"measurement": "TGI", "setting": "RXF 393 renal", "value": 26.7, "unit": "µM"}, {"measurement": "TGI", "setting": "CCRF-CEM leukemia", "value": 15.2, "unit": "µM"}, {"measurement": "TGI", "setting": "OVCAR-4 ovarian", "value": "> 100", "unit": "µM"}, {"measurement": "TGI", "setting": "HL-60(TB) leukemia", "value": 5.71, "unit": "µM"}, {"measurement": "TGI", "setting": "UO-31 renal", "value": 30.8, "unit": "µM"}, {"measurement": "TGI", "setting": "UACC-62 melanoma", "value": 23.1, "unit": "µM"}, {"measurement": "TGI", "setting": "SK-MEL-28 melanoma", "value": 31.1, "unit": "µM"}, {"measurement": "TGI", "setting": "IGROV1 ovarian", "value": "> 88.2", "unit": "µM"}, {"measurement": "TGI", "setting": "TK-10 renal", "value": 66.3, "unit": "µM"}, {"measurement": "TGI", "setting": "MOLT-4 leukemia", "value": 45.1, "unit": "µM"}, {"measurement": "TGI", "setting": "NCI-H460 lung", "value": 17.7, "unit": "µM"}, {"measurement": "TGI", "setting": "SF-268 CNS", "value": 32.3, "unit": "µM"}, {"measurement": "TGI", "setting": "NCI-H23 lung", "value": 26.6, "unit": "µM"}, {"measurement": "TGI", "setting": "SW-620 colon", "value": "> 55.3", "unit": "µM"}, {"measurement": "TGI", "setting": "OVCAR-5 ovarian", "value": 33.5, "unit": "µM"}, {"measurement": "TGI", "setting": "MDA-N", "value": 53.4, "unit": "µM"}, {"measurement": "TGI", "setting": "EKVX NSCLC", "value": 49, "unit": "µM"}, {"measurement": "TGI", "setting": "NCI/ADR-RES ovarian", "value": "> 68.7", "unit": "µM"}, {"measurement": "TGI", "setting": "SK-MEL-2 melanoma", "value": 18.3, "unit": "µM"}, {"measurement": "TGI", "setting": "COLO 205 colon", "value": 29.8, "unit": "µM"}, {"measurement": "TGI", "setting": "OVCAR-3 ovarian", "value": 2.65, "unit": "µM"}, {"measurement": "TGI", "setting": "MDA-MB-435", "value": "> 100", "unit": "µM"}, {"measurement": "TGI", "setting": "HT29 colon", "value": 26, "unit": "µM"}, {"measurement": "TGI", "setting": "SR leukemia", "value": 14.1, "unit": "µM"}, {"measurement": "TGI", "setting": "T-47D breast", "value": "> 80.3", "unit": "µM"}, {"measurement": "TGI", "setting": "786-0 renal", "value": 22.9, "unit": "µM"}, {"measurement": "TGI", "setting": "HCT-116 colon", "value": 20.4, "unit": "µM"}, {"measurement": "TGI", "setting": "A549 NSCLC", "value": "> 75.4", "unit": "µM"}, {"measurement": "TGI", "setting": "NCI-H226 lung", "value": 55, "unit": "µM"}, {"measurement": "TGI", "setting": "NCI-H522 lung", "value": 3.19, "unit": "µM"}, {"measurement": "TGI", "setting": "SN12C renal", "value": 18, "unit": "µM"}, {"measurement": "TGI", "setting": "SNB-19 CNS", "value": 24.9, "unit": "µM"}, {"measurement": "TGI", "setting": "LOX IMVI melanoma", "value": 26.9, "unit": "µM"}, {"measurement": "TGI", "setting": "HOP-62 NSCLC", "value": 31.1, "unit": "µM"}, {"measurement": "TGI", "setting": "HOP-92 NSCLC", "value": "> 100", "unit": "µM"}]}]}
